Data from ChEMBL document CHEMBL1201862, “PubChem BioAssay data set” (2004).
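A five-concentration, 48-hour dose response in 96-well plates underlies each endpoint, interpolated linearly between surrounding concentrations. Here, GI50 denotes the concentration required for 50% inhibition of growth.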 The source made the active and inactive calls. No stated cut-off is given here; in the data, active = GI50 up to about 1.1 µM and inactive = higher.

Key:
Experiment in all cases: growth of human tumour cells (NCI), 48 h
[1] = tested on: MCF7
[2] = tested on: 786-0
[3] = tested on: UACC-62
[4] = tested on: M14
[5] = tested on: HT-29
[6] = tested on: NCI-H522
[7] = tested on: SK-MEL-2
[8] = tested on: NCI-H460
[9] = tested on: HCT-15
[10] = tested on: SK-MEL-28
[11] = tested on: SN12C
[12] = tested on: NCI/ADR-RES
[13] = tested on: SF-295
[14] = tested on: LOX IMVI
[15] = tested on: T47D
[16] = tested on: UO-31
[17] = tested on: A549
[18] = tested on: IGROV-1
[19] = tested on: OVCAR-5

SMILES | GI50 [1] | GI50 [2] | GI50 [3] | GI50 [4] | GI50 [5] | GI50 [6] | GI50 [7] | GI50 [8] | GI50 [9] | GI50 [10] | GI50 [11] | GI50 [12] | GI50 [13] | GI50 [14] | GI50 [15] | GI50 [16] | GI50 [17] | GI50 [18] | GI50 [19]
CCCCCC(O)[C@H]1C(=O)C[C@@H](O[Si](C)(C)C(C)(C)C)[C@@H]1/C=C/CCOCc1ccccc1 (stereo partly drawn) | 9.02 µM (inactive) | 11.4 µM (inactive) | 11.8 µM (inactive) | 12.6 µM (inactive) | 9.59 µM (inactive) | 3.88 µM (inactive) | 15.5 µM (inactive) | 16.9 µM (inactive) | 10.6 µM | 15.5 µM (inactive) | 19.1 µM (inactive) | 12.1 µM (inactive) | 2.39 µM (inactive) | 10.9 µM (inactive) | 13.6 µM (inactive) | 14.5 µM (inactive) | 18 µM (inactive) | 12.8 µM (inactive) | 17.9 µM (inactive)
O=C1c2ccccc2-n2c1nc1ccccc1c2=O [TRYPTANTHRIN] | 7.19 µM (inactive) | 28.2 µM (inactive) | 3.69 µM (inactive) | 5.65 µM (inactive) | 14.8 µM (inactive) | 15.3 µM (inactive) | 10.1 µM (inactive) | 1.44 µM (inactive) | 3.6 µM | 15.8 µM (inactive) | 12.6 µM (inactive) | 22.3 µM (inactive) | 4.29 µM (inactive) | 4.44 µM (inactive) | 8.87 µM (inactive) | 5.06 µM (inactive) | 2.59 µM (inactive) | 23 µM (inactive) | 16 µM (inactive)
CC(=O)OCC1OC(n2c(C)c(C(C)=O)c(-c3cccc4ccccc34)c(C#N)c2=S)C(OC(C)=O)C(OC(C)=O)C1OC(C)=O (stereo not drawn) | > 100 µM (inactive) | > 100 µM (inactive) | > 100 µM (inactive) | > 100 µM (inactive) | > 100 µM (inactive) | > 100 µM (inactive) | > 100 µM (inactive) | > 100 µM (inactive) | > 100 µM | > 100 µM (inactive) | > 100 µM (inactive) | > 100 µM (inactive) | > 100 µM (inactive) | > 100 µM (inactive) | > 100 µM (inactive) | < 0.01 µM (active) | > 100 µM (inactive) | > 100 µM (inactive) | > 100 µM (inactive)
O=c1ssc(Cl)c1Cl | > 7.78 µM (inactive) | > 4.7 µM (inactive) | > 10 µM (inactive) | > 10 µM (inactive) | > 10 µM (inactive) | 4.05 µM (inactive) | > 10 µM (inactive) | > 10 µM (inactive) | > 10 µM | > 10 µM (inactive) | > 10 µM (inactive) | > 10 µM (inactive) | > 10 µM (inactive) | > 10 µM (inactive) | > 10 µM (inactive) | > 4.93 µM (inactive) | > 10 µM (inactive) | > 10 µM (inactive) | > 10 µM (inactive)
CN(C)CCCNc1c2c(=O)n(C)c(=O)nc-2n(C)c2ccccc12 | 3.82 µM (inactive) | 5.68 µM (inactive) | 5.22 µM (inactive) | 5.02 µM (inactive) | 4.26 µM (inactive) | 2.45 µM (inactive) | 2.52 µM (inactive) | 2.85 µM (inactive) | 20.1 µM | 10.4 µM (inactive) | 4.43 µM (inactive) | 67 µM (inactive) | 6.43 µM (inactive) | 3.87 µM (inactive) | 5.12 µM (inactive) | 4.51 µM (inactive) | 4.74 µM (inactive) | 15.6 µM (inactive) | 6.1 µM (inactive)
Nc1ncnc2c1ncn2[C@H]1CC[C@@H](NO)C1 | > 100 µM (inactive) | > 100 µM (inactive) | > 100 µM (inactive) | > 100 µM (inactive) |  | > 100 µM (inactive) | > 100 µM (inactive) | > 100 µM (inactive) | > 100 µM | > 100 µM (inactive) | > 100 µM (inactive) | > 100 µM (inactive) | > 100 µM (inactive) | > 100 µM (inactive) | > 100 µM (inactive) | > 100 µM (inactive) | > 100 µM (inactive) | > 100 µM (inactive) | > 100 µM (inactive)
C=CCOc1cc(NC(=S)c2ccoc2C)ccc1OC | > 100 µM (inactive) | > 100 µM (inactive) | > 100 µM (inactive) | > 100 µM (inactive) | > 100 µM (inactive) | > 100 µM (inactive) | > 100 µM (inactive) | > 100 µM (inactive) | > 100 µM | > 100 µM (inactive) | > 100 µM (inactive) | > 100 µM (inactive) | > 100 µM (inactive) | > 100 µM (inactive) | > 100 µM (inactive) | > 100 µM (inactive) | > 100 µM (inactive) | > 100 µM (inactive) | > 100 µM (inactive)
Cc1ccc(Nc2[nH]c(=O)[nH]c(=O)c2C)cc1Cl | 19.5 µM (inactive) | > 100 µM (inactive) | 59.3 µM (inactive) | > 100 µM (inactive) | > 100 µM (inactive) | > 100 µM (inactive) | > 100 µM (inactive) | > 100 µM (inactive) | 91.6 µM | > 100 µM (inactive) | > 100 µM (inactive) | > 100 µM (inactive) | 26.2 µM (inactive) | > 100 µM (inactive) | > 100 µM (inactive) | 30.4 µM (inactive) | > 100 µM (inactive) | 78.5 µM (inactive) | > 100 µM (inactive)
Clc1ccc(Cc2nc3ccccc3o2)cc1 | 51.4 µM (inactive) | 96.4 µM (inactive) | > 100 µM (inactive) | > 100 µM (inactive) | 40.2 µM (inactive) | 33.8 µM (inactive) | > 100 µM (inactive) | > 100 µM (inactive) | 39.3 µM | > 100 µM (inactive) | > 100 µM (inactive) | 42 µM (inactive) | 57.8 µM (inactive) | > 100 µM (inactive) | 27.2 µM (inactive) | 67.6 µM (inactive) | 75 µM (inactive) | > 100 µM (inactive) | > 100 µM (inactive)
CCOC(=O)/C=C\c1c(Cl)n(-c2ccccc2)c(=O)n(-c2ccccc2)c1=O | 22.6 µM (inactive) | 20.3 µM (inactive) | 18.3 µM (inactive) | 18.7 µM (inactive) | 19 µM (inactive) | 18.1 µM (inactive) | 17.7 µM (inactive) | 18 µM (inactive) | 19.8 µM | 18.9 µM (inactive) | 19.6 µM (inactive) | 26.5 µM (inactive) | 21.9 µM (inactive) | 22.6 µM (inactive) | 20.2 µM (inactive) | 18.8 µM (inactive) | 25.1 µM (inactive) | 17.6 µM (inactive) | 20.6 µM (inactive)
COC(=O)C1Cc2c(C)cccc2C1=O (stereo not drawn) | > 100 µM (inactive) | > 100 µM (inactive) | > 100 µM (inactive) | > 100 µM (inactive) | > 100 µM (inactive) | > 100 µM (inactive) | > 100 µM (inactive) | > 100 µM (inactive) | > 100 µM | > 100 µM (inactive) | > 100 µM (inactive) | > 100 µM (inactive) | > 100 µM (inactive) | 88.9 µM (inactive) | > 100 µM (inactive) | > 100 µM (inactive) | > 100 µM (inactive) | > 100 µM (inactive) | > 100 µM (inactive)
